According to patent US8071336B2, “Antibody-based therapeutics with enhanced ADCC activity” (Genzyme Corporation, priority 2005, dated 2011):

Experiments:
[1] = test system: Hybridoma cells expressing TEM mAb A; experiment: N-glycans of TEM mAb A from inhibitor-treated hybridoma cells (MALDI-TOF MS); format: cell-based; conditions: 20 μg/ml mannostatin A, 0.5 mM NB-DNJ, or 2 μg/ml kifunensine at days 0 and 2
Method: Hybridoma cells expressing TEM mAb A, an antibody against a tumor vascular associated antigen, were grown in medium containing 1% fetal bovine serum with low IgG (Invitrogen Corp.), 5 μg/ml bovine insulin, 5 μg/ml human transferrin, 0.01 mM ethanolamine and 25 nM sodium selenite. Cells were treated once with the following inhibitors: 20 μg/ml mannostatin A, and 0.5 mM NB-DNJ for 4 days; and twice with 2 μg/ml kifunensine at days 0 and 2; or cultured without inhibitors (“control”).
N-linked glycans from antibodies purified as described in Example 1 were released with PNGase F. After filtration through 10 kDa filters, the filtrates were treated with Dowex AG-50 (H^+), AG501, and […] sequentially. Aliquots of samples were applied to a target, followed by sDHB matrix. The MALDI-TOF mass spectra were acquired using a Voyager-DE PRO Biospectrometry Workstation (Applied Biosystems, Foster City, Calif., USA) in the positive-ion and reflective mode.

[2] = test system: CHO cells expressing TEM mAb B; experiment: Batch cultures of CHO cells expressing TEM mAb B treated with kifunensine (shaker flasks); format: cell-based, Chinese hamster
Method: The production of TEM mAb B from batch cultures treated with various amounts of kifunensine or untreated was evaluated. CHO cells in shaker flasks were treated with 0, 0.5, 1, 1.5, or 2 μg/ml in a single or three additions (4 days apart) and cultured for 11 days. Cell viability (using trypan blue) and cell counts were assessed at least every other day.

[3] = test system: CHO cell clone expressing TEM mAb A; experiment: Titration of kifunensine concentration, N-glycans of TEM mAb A (MALDI-TOF MS); format: cell-based, Chinese hamster; conditions: for glycan structures of the expressed antibody: 11 days
Method: To investigate the impact of mixed oligomannose and complex-type glycans on antibody function, cells expressing TEM mAb A were treated with various amounts of kifunensine. In the first experiment, a CHO cell clone expressing TEM mAb A was treated with 0, 4, 20, 100, 500 and 2500 ng/ml of kifunensine for 11 days. The medium was harvested, and the antibody was purified using a protein A column. Fractions containing protein peaks were pooled and dialyzed into PBS. A second titration experiment was performed with a narrower range of kifunensine concentration, specifically, from 20 to 100 ng/ml. After treatment for 11 days, 50 ml of medium from each treatment condition was harvested, and the antibody was purified. Peak-containing fractions were pooled, buffer-exchanged into PBS using Centricon® filters with repeated centrifugation. Aliquots of TEM mAb A antibody samples were applied to a 4-12% NuPAGE and stained with Coomassie blue to confirm purity. The amount of fucosylated and non-fucosylated glycans in antibodies from each kifunensine treatment in the second titration experiment was estimated by calculating the area of each individual glycan peak in MALDI-TOF MS spectra.

[4] = after removal of most of the galactose residues; cited from earlier work
[5] = after removal of most of the galactose residues; cited from earlier work; remark: listed apart in the source

## CCCCN1C[C@H](O)[C@@H](O)[C@H](O)[C@H]1CO [NB-DNJ, N-butyl-DNJ]
[1]
  effect on glycosylation of the expressed antibody: significant amounts of Glc1Man9GlcGNAc2 (Man9Glc)

## O=C1N[C@@H]2[C@@H](O)[C@@H](O)[C@H](O)[C@@H](CO)N2C1=O [kifunensine]
[2]; 0.5 μg/ml kif sup. 3x (three additions), 11 days
  Xvmax (viable cells at day of peak cell density): 3.5 ×10^6 cells
[2]; 0.5 μg/ml kif, single addition, 11 days
  Xvmax (viable cells at day of peak cell density): 3.5 ×10^6 cells
[2]; 1 μg/ml kif sup. 3x (three additions), 11 days
  Xvmax (viable cells at day of peak cell density): 1.6 ×10^6 cells
[2]; 1 μg/ml kif, single addition, 11 days
  Xvmax (viable cells at day of peak cell density): 2.7 ×10^6 cells
[2]; 1.5 μg/ml kif sup. 3x (three additions), 11 days
  Xvmax (viable cells at day of peak cell density): 1.6 ×10^6 cells
[2]; 1.5 μg/ml kif, single addition, 11 days
  Xvmax (viable cells at day of peak cell density): 3.8 ×10^6 cells
[2]; 2 μg/ml kif sup. 3x (three additions), 11 days
  Xvmax (viable cells at day of peak cell density): 1.7 ×10^6 cells
[2]; 2 μg/ml kif, single addition, 11 days
  Xvmax (viable cells at day of peak cell density): 2.1 ×10^6 cells
[2]; FIG. 10A, 0 to 2 μg/ml kifunensine, 1 or 3 additions, 11 days
  cell viability (trypan blue): comparable
[2]; FIG. 10B, kifunensine-treated vs untreated cells
  cell density: lower
[2]; single kifunensine treatment at 0.5 μg/ml
  glycan structures of the expressed antibody: enough to result in the production of oligomannose-type structures
[2]; three additions of kifunensine vs untreated control or single treatment
  cell density: much lower cell density
[1]
  effect on glycosylation of the expressed antibody: more effective in blocking the glycosylation to complex-type structures than NB-DNJ
[3]; 20 ng/ml kifunensine
  glycan structures of the expressed antibody: only a small amount of oligomannose structures (Man5/Man6)
[3]; 60 ng/ml or higher kifunensine, estimated from MALDI-TOF MS peak areas
  non-fucosylated glycans of the expressed antibody: > 80%
[3]; 100 ng/ml kifunensine
  glycan structures of the expressed antibody: complete oligomannose structures

## CS[C@@H]1[C@@H](N)[C@@H](O)[C@@H](O)[C@H]1O [mannostatin A]
[1]
  effect on glycosylation of the expressed antibody: No alteration in glycosylation

## Campath®: a humanized mAb IgG1
[4]
  complement lysis activity: reduced complement lysis activity
[5]
  ADCC: no effect on ADCC
